Measured values: patent publication US7342011B2, “Rifamycin analogs and uses thereof” (priority 2003, dated 2008)
Values after ≈ are worked out from the molar mass of the structure shown.

Assays:
Format in all cases: cell-based
S. aureus = assay: MIC assay, S. aureus
S. pneumo. = assay: MIC assay, S. pneumo.
E. faecalis = assay: MIC assay, E. faecalis
H. flu = assay: MIC assay, H. flu
E. coli = assay: MIC assay, E. coli

Structure (SMILES): COCCOC(=O)NC1CCN(c2cc(O)c3nc4c5c6c7c(C)c(O)c5c(=O)c(c-4oc3c2)NC(=O)/C(C)=C\C=C\[C@H](C)[C@H](O)[C@@H](C)[C@@H](O)[C@@H](C)[C@H](OC(C)=O)[C@H](C)[C@@H](OC)/C=C/O[C@@](C)(O7)C6=O)CC1 [Compound 41, 3′-hydroxy-5′-[4-methoxyethylcarbamyl-1-piperidinyl]benzoxazinorifamycin]
- MIC (μg/mL) S. aureus (S. aureus): 0.25 µg/mL (≈ 250 nM)
- MIC (μg/mL) S. pneumo. (S. pneumo.): 0.0005 µg/mL (≈ 0.499 nM)
- MIC (μg/mL) E. faecalis (E. faecalis): >8 µg/mL
- MIC (μg/mL) H. flu (H. flu): 2 µg/mL (≈ 2000 nM)
- MIC (μg/mL) E. coli (E. coli): >8 µg/mL

Structure (SMILES): CCOC(=O)N1CCCC2CN(c3cc(O)c4nc5c6c7c8c(C)c(O)c6c(=O)c(c-5oc4c3)NC(=O)C(C)=CC=CC(C)C(O)C(C)C(O)C(C)C(O)C(C)C(OC)C=COC(C)(O8)C7=O)CC21 (stereo not drawn) [Compound 42]
- MIC (μg/mL) S. aureus (S. aureus): 0.008 µg/mL (≈ 8.38 nM)
- MIC (μg/mL) S. pneumo. (S. pneumo.): 0.00012 µg/mL (≈ 0.126 nM)
- MIC (μg/mL) E. faecalis (E. faecalis): 2 µg/mL (≈ 2090 nM)
- MIC (μg/mL) H. flu (H. flu): 0.5 µg/mL (≈ 524 nM)
- MIC (μg/mL) E. coli (E. coli): 8 µg/mL (≈ 8380 nM)

Structure (SMILES): CO[C@H]1/C=C/O[C@@]2(C)Oc3c(C)c(O)c4c(=O)c(c5oc6cc(N7CCC(NC(C)=O)CC7)cc(O)c6nc-5c4c3C2=O)NC(=O)/C(C)=C\C=C\[C@H](C)[C@H](O)[C@@H](C)[C@@H](O)[C@@H](C)[C@H](OC(C)=O)[C@@H]1C [Compound 44]
- MIC (μg/mL) S. aureus (S. aureus): 0.06 µg/mL (≈ 63.8 nM)
- MIC (μg/mL) S. pneumo. (S. pneumo.): 0.008 µg/mL (≈ 8.5 nM)
- MIC (μg/mL) E. faecalis (E. faecalis): 2 µg/mL (≈ 2130 nM)
- MIC (μg/mL) H. flu (H. flu): 0.25 µg/mL (≈ 266 nM)
- MIC (μg/mL) E. coli (E. coli): >8 µg/mL

Structure (SMILES): CO[C@H]1/C=C/O[C@@]2(C)Oc3c(C)c(O)c4c(=O)c(c5oc6cc(N7CCC(NC(=O)SC)CC7)cc(O)c6nc-5c4c3C2=O)NC(=O)/C(C)=C\C=C\[C@H](C)[C@H](O)[C@@H](C)[C@@H](O)[C@@H](C)[C@H](OC(C)=O)[C@@H]1C [Compound 45, 3′-hydroxy-5′-[4-S-methylthiocarbamyl-1-piperidinyl]benzoxazinorifamycin]
- MIC (μg/mL) S. aureus (S. aureus): 0.015 µg/mL (≈ 15.4 nM)
- MIC (μg/mL) S. pneumo. (S. pneumo.): 0.001 µg/mL (≈ 1.03 nM)
- MIC (μg/mL) E. faecalis (E. faecalis): 4 µg/mL (≈ 4110 nM)
- MIC (μg/mL) H. flu (H. flu): 0.5 µg/mL (≈ 514 nM)
- MIC (μg/mL) E. coli (E. coli): 8 µg/mL (≈ 8220 nM)

Structure (SMILES): CO[C@H]1/C=C/O[C@@]2(C)Oc3c(C)c(O)c4c(=O)c(c5oc6cc(N7C[C@H]8CCCN(C(C)=O)[C@H]8C7)cc(O)c6nc-5c4c3C2=O)NC(=O)/C(C)=C\C=C\[C@H](C)[C@H](O)[C@@H](C)[C@@H](O)[C@@H](C)[C@H](O)[C@@H]1C [Compound 46, 25-O-deacetyl-3′-hydroxy-5′-[1-acetyl-(4aR,7aR)-octahydro-6H-pyrrolo[3,4-b]pyridin-6-yl]benzoxazinorifamycin]
- MIC (μg/mL) S. aureus (S. aureus): 0.004 µg/mL (≈ 4.32 nM)
- MIC (μg/mL) S. pneumo. (S. pneumo.): 0.00006 µg/mL (≈ 0.0649 nM)
- MIC (μg/mL) E. faecalis (E. faecalis): 2 µg/mL (≈ 2160 nM)
- MIC (μg/mL) H. flu (H. flu): 0.5 µg/mL (≈ 541 nM)
- MIC (μg/mL) E. coli (E. coli): >8 µg/mL

Structure (SMILES): CO[C@H]1/C=C/O[C@@]2(C)Oc3c(C)c(O)c4c(=O)c(c5oc6cc(N7C[C@H]8CCCN(C(C)=O)[C@H]8C7)cc(O)c6nc-5c4c3C2=O)NC(=O)/C(C)=C\C=C\[C@H](C)[C@H](O)[C@@H](C)[C@@H](O)[C@@H](C)[C@H](OC(C)=O)[C@@H]1C [Compound 47, 3′-hydroxy-5′-[-acetyl-(4aR,7aR)-octahydro-6H-pyrrolo[3,4-b]pyridin-6-yl]benzoxazinorifamycin]
- MIC (μg/mL) S. aureus (S. aureus): 0.008 µg/mL (≈ 8.27 nM)
- MIC (μg/mL) S. pneumo. (S. pneumo.): 0.002 µg/mL (≈ 2.07 nM)
- MIC (μg/mL) E. faecalis (E. faecalis): 1 µg/mL (≈ 1030 nM)
- MIC (μg/mL) H. flu (H. flu): 0.25 µg/mL (≈ 259 nM)
- MIC (μg/mL) E. coli (E. coli): >8 µg/mL

Structure (SMILES): CO[C@H]1/C=C/O[C@@]2(C)Oc3c(C)c(O)c4c(=O)c(c5oc6cc(N7CCC(NC(=O)OC(C)(C)C)CC7)cc(O)c6nc-5c4c3C2=O)NC(=O)/C(C)=C\C=C\[C@H](C)[C@H](O)[C@@H](C)[C@@H](O)[C@@H](C)[C@H](OC(C)=O)[C@@H]1C [Compound 48, 3′-hydroxy-5,′-[4-(2,2-dimethylethyl)carbamyl-1-piperidinyl]benzoxazinorifamycin]
- MIC (μg/mL) S. aureus (S. aureus): 0.008 µg/mL (≈ 8.01 nM)
- MIC (μg/mL) S. pneumo. (S. pneumo.): 0.00025 µg/mL (≈ 0.25 nM)
- MIC (μg/mL) E. faecalis (E. faecalis): 2 µg/mL (≈ 2000 nM)
- MIC (μg/mL) H. flu (H. flu): 1 µg/mL (≈ 1000 nM)
- MIC (μg/mL) E. coli (E. coli): >8 µg/mL

Structure (SMILES): CO[C@H]1/C=C/O[C@@]2(C)Oc3c(C)c(O)c4c(=O)c(c5oc6cc(N7CCC(NC(=O)N8CCC(NC(=O)SC)CC8)CC7)cc(O)c6nc-5c4c3C2=O)NC(=O)/C(C)=C\C=C\[C@H](C)[C@H](O)[C@@H](C)[C@@H](O)[C@@H](C)[C@H](OC(C)=O)[C@@H]1C [Compound 49, 3′-hydroxy-5′-[4-(4-(S-methylthiocarbamyl)-1-piperidinylcarbonyl)amino-1-piperidinyl]benzoxazinorifamycin]
- MIC (μg/mL) S. aureus (S. aureus): 0.06 µg/mL (≈ 54.6 nM)
- MIC (μg/mL) S. pneumo. (S. pneumo.): 0.0005 µg/mL (≈ 0.455 nM)
- MIC (μg/mL) E. faecalis (E. faecalis): 8 µg/mL (≈ 7280 nM)
- MIC (μg/mL) H. flu (H. flu): 2 µg/mL (≈ 1820 nM)
- MIC (μg/mL) E. coli (E. coli): >8 µg/mL

Structure (SMILES): CO[C@H]1/C=C/O[C@@]2(C)Oc3c(C)c(O)c4c(=O)c(c5oc6cc(N7CCC(NC(=O)N8CCN(C)CC8)CC7)cc(O)c6nc-5c4c3C2=O)NC(=O)/C(C)=C\C=C\[C@H](C)[C@H](O)[C@@H](C)[C@@H](O)[C@@H](C)[C@H](OC(C)=O)[C@@H]1C [Compound 50, 3′-hydroxy-5′-[4-(4-methylpiperazinylcarbonyl)amino-1-piperidinyl]benzoxazinorifamycin]
- MIC (μg/mL) S. aureus (S. aureus): 0.03 µg/mL (≈ 29.3 nM)
- MIC (μg/mL) S. pneumo. (S. pneumo.): 0.00012 µg/mL (≈ 0.117 nM)
- MIC (μg/mL) E. faecalis (E. faecalis): 4 µg/mL (≈ 3900 nM)
- MIC (μg/mL) H. flu (H. flu): 0.5 µg/mL (≈ 488 nM)
- MIC (μg/mL) E. coli (E. coli): >8 µg/mL

Structure (SMILES): CCOC(=O)NCC1CCN(c2cc(O)c3nc4c5c6c7c(C)c(O)c5c(=O)c(c-4oc3c2)NC(=O)/C(C)=C\C=C\[C@H](C)[C@H](O)[C@@H](C)[C@@H](O)[C@@H](C)[C@H](OC(C)=O)[C@H](C)[C@@H](OC)/C=C/O[C@@](C)(O7)C6=O)CC1 [Compound 51, 3′-hydroxy-5′-[4-ethylcarbamylmethyl-1-piperidinyl]benzoxazinorifamycin]
- MIC (μg/mL) S. aureus (S. aureus): 0.06 µg/mL (≈ 60.9 nM)
- MIC (μg/mL) S. pneumo. (S. pneumo.): 0.002 µg/mL (≈ 2.03 nM)
- MIC (μg/mL) E. faecalis (E. faecalis): 8 µg/mL (≈ 8120 nM)
- MIC (μg/mL) H. flu (H. flu): 0.25 µg/mL (≈ 254 nM)
- MIC (μg/mL) E. coli (E. coli): 8 µg/mL (≈ 8120 nM)

Structure (SMILES): CO[C@H]1/C=C/O[C@@]2(C)Oc3c(C)c(O)c4c(=O)c(c5oc6cc(N7CCC(CNC(C)=O)CC7)cc(O)c6nc-5c4c3C2=O)NC(=O)/C(C)=C\C=C\[C@H](C)[C@H](O)[C@@H](C)[C@@H](O)[C@@H](C)[C@H](OC(C)=O)[C@@H]1C [Compound 55, 3′-hydroxy-5′-[4-acetylaminomethyl-1-piperidinyl]benzoxazinorifamycin]
- MIC (μg/mL) S. aureus (S. aureus): 0.008 µg/mL (≈ 8.38 nM)
- MIC (μg/mL) S. pneumo. (S. pneumo.): 0.00025 µg/mL (≈ 0.262 nM)
- MIC (μg/mL) E. faecalis (E. faecalis): 1 µg/mL (≈ 1050 nM)
- MIC (μg/mL) H. flu (H. flu): 0.5 µg/mL (≈ 524 nM)
- MIC (μg/mL) E. coli (E. coli): 8 µg/mL (≈ 8380 nM)

Structure (SMILES): CO[C@H]1/C=C/O[C@@]2(C)Oc3c(C)c(O)c4c(=O)c(c5oc6cc(N7CCC(c8ccccc8)CC7)cc(O)c6nc-5c4c3C2=O)NC(=O)/C(C)=C\C=C\[C@H](C)[C@H](O)[C@@H](C)[C@@H](O)[C@@H](C)[C@H](OC(C)=O)[C@@H]1C [Compound 57, 3′-hydroxy-5′-[4-phenyl-1-piperidinyl]benzoxazinorifamycin]
- MIC (μg/mL) S. aureus (S. aureus): 0.008 µg/mL (≈ 8.33 nM)
- MIC (μg/mL) S. pneumo. (S. pneumo.): 0.0005 µg/mL (≈ 0.521 nM)
- MIC (μg/mL) E. faecalis (E. faecalis): 2 µg/mL (≈ 2080 nM)
- MIC (μg/mL) H. flu (H. flu): 0.5 µg/mL (≈ 521 nM)
- MIC (μg/mL) E. coli (E. coli): 8 µg/mL (≈ 8330 nM)

Structure (SMILES): CO[C@H]1/C=C/O[C@@]2(C)Oc3c(C)c(O)c4c(=O)c(c5oc6cc(N7C[C@@H]8CCCN(C)[C@@H]8C7)cc(O)c6nc-5c4c3C2=O)NC(=O)/C(C)=C\C=C\[C@H](C)[C@H](O)[C@@H](C)[C@@H](O)[C@@H](C)[C@H](OC(C)=O)[C@@H]1C [Compound 58, 3′-hydroxy-5′-[1-methyl-(4aS,7aS)-octahydro-6H-pyrrolo[3,4-b]pyridin-6-yl]benzoxazinorifamycin]
- MIC (μg/mL) S. aureus (S. aureus): 0.03 µg/mL (≈ 31.9 nM)
- MIC (μg/mL) S. pneumo. (S. pneumo.): 0.004 µg/mL (≈ 4.26 nM)
- MIC (μg/mL) E. faecalis (E. faecalis): 1 µg/mL (≈ 1060 nM)
- MIC (μg/mL) H. flu (H. flu): 0.25 µg/mL (≈ 266 nM)
- MIC (μg/mL) E. coli (E. coli): >8 µg/mL

Structure (SMILES): CO[C@H]1/C=C/O[C@@]2(C)Oc3c(C)c(O)c4c(=O)c(c5oc6cc(N7C[C@@H]8CCCN(C)[C@@H]8C7)cc(O)c6nc-5c4c3C2=O)NC(=O)/C(C)=C\C=C\[C@H](C)[C@H](O)[C@@H](C)[C@@H](O)[C@@H](C)[C@H](O)[C@@H]1C [Compound 59, 25-O-deacetyl-3′-hydroxy-5′-[1-methyl-(4aS,7aS)-octahydro-6H-pyrrolo[3,4-b]pyridin-6-yl]benzoxazinorifamycin]
- MIC (μg/mL) S. aureus (S. aureus): 0.004 µg/mL (≈ 4.46 nM)
- MIC (μg/mL) S. pneumo. (S. pneumo.): 0.001 µg/mL (≈ 1.11 nM)
- MIC (μg/mL) E. faecalis (E. faecalis): 0.06 µg/mL (≈ 66.9 nM)
- MIC (μg/mL) H. flu (H. flu): 0.12 µg/mL (≈ 134 nM)
- MIC (μg/mL) E. coli (E. coli): 4 µg/mL (≈ 4460 nM)

Structure (SMILES): CO[C@H]1/C=C/O[C@@]2(C)Oc3c(C)c(O)c4c(=O)c(c5oc6cc(N7CCC(CCO)CC7)cc(O)c6nc-5c4c3C2=O)NC(=O)/C(C)=C\C=C\[C@H](C)[C@H](O)[C@@H](C)[C@@H](O)[C@@H](C)[C@H](OC(C)=O)[C@@H]1C [Compound 61, 3′-hydroxy-5′-[4-(2-hydroxyethyl)-1-piperidinyl]benzoxazinorifamycin]
- MIC (μg/mL) S. aureus (S. aureus): 0.004 µg/mL (≈ 4.31 nM)
- MIC (μg/mL) S. pneumo. (S. pneumo.): 0.00012 µg/mL (≈ 0.129 nM)
- MIC (μg/mL) E. faecalis (E. faecalis): 1 µg/mL (≈ 1080 nM)
- MIC (μg/mL) H. flu (H. flu): 0.25 µg/mL (≈ 269 nM)
- MIC (μg/mL) E. coli (E. coli): >8 µg/mL
